#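 Interpolation was linear, between the two tested concentrations surrounding the appropriate level; five concentrations were tested over 48 hours in 96-well plates. TGI marks complete inhibition of growth.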
# Tests used:
# Assay in all cases: NCI anticancer screen, dose series, 48 h
# [1] = test system: M19-MEL melanoma
# [2] = test system: IGROV1 ovarian
# [3] = test system: UO-31 renal
# [4] = test system: 786-0 renal
# [5] = test system: SNB-78 CNS
# [6] = test system: HCT-15 colon
# [7] = test system: OVCAR-4 ovarian
# [8] = test system: SN12C renal
# [9] = test system: DMS 273 small cell lung
# [10] = test system: CAKI-1 renal
# [11] = test system: CCRF-CEM leukemia
# [12] = test system: RXF-631 renal
# [13] = test system: LOX IMVI melanoma
# [14] = test system: EKVX NSCLC
# [15] = test system: SR leukemia
# [16] = test system: HL-60(TB) leukemia
# [17] = test system: OVCAR-5 ovarian
# [18] = test system: TK-10 renal
# [19] = test system: MALME-3M melanoma
# [20] = test system: SNB-75 CNS
# [21] = test system: HOP-62 NSCLC
# [22] = test system: SK-MEL-28 melanoma
# [23] = test system: XF 498 CNS
# [24] = test system: OVCAR-3 ovarian
# [25] = test system: RPMI-8226 leukemia
# [26] = test system: HT29 colon
# [27] = test system: SF-295 CNS
# [28] = test system: ACHN renal
# [29] = test system: NCI-H522 lung
# [30] = test system: A549 NSCLC
# [31] = test system: SW-620 colon
# [32] = test system: SK-OV-3 ovarian
# [33] = test system: NCI-H460 lung
# [34] = test system: COLO 205 colon
# [35] = test system: SF-268 CNS
# [36] = test system: LXFL 529 NSCLC
# [37] = test system: M14 melanoma
# [38] = test system: HOP-92 NSCLC
# [39] = test system: SNB-19 CNS
# [40] = test system: KM20L2 colon
# [41] = test system: RXF 393 renal
# [42] = test system: UACC-257 melanoma
# [43] = test system: A498 renal
# [44] = test system: HOP-18 NSCLC
# [45] = test system: K-562 leukemia
# [46] = test system: OVCAR-8 ovarian
# [47] = test system: UACC-62 melanoma
# [48] = test system: HCT-116 colon
# [49] = test system: NCI-H23 lung
# [50] = test system: U251 CNS
# [51] = test system: DLD-1 colon
# [52] = test system: SK-MEL-2 melanoma
# [53] = test system: MOLT-4 leukemia
# [54] = test system: SF-539 CNS
# [55] = test system: SK-MEL-5 melanoma
# [56] = test system: KM12 colon
compound,measurement,setting,value
CN(C)CCC(/C=C/c1ccccc1)=N\Nc1ccc(Cl)c(Cl)c1,TGI,[1],15 µM
same,TGI,[2],10.1 µM
same,TGI,[3],3.41 µM
same,TGI,[4],9.26 µM
same,TGI,[5],15.4 µM
same,TGI,[6],12.9 µM
same,TGI,[7],10.8 µM
same,TGI,[8],13.7 µM
same,TGI,[9],6.42 µM
same,TGI,[10],7.03 µM
same,TGI,[11],10.1 µM
same,TGI,[12],6.73 µM
same,TGI,[13],3.71 µM
same,TGI,[14],13.1 µM
same,TGI,[15],5.34 µM
same,TGI,[16],7.31 µM
same,TGI,[17],15.6 µM
same,TGI,[18],6.18 µM
same,TGI,[19],32.8 µM
same,TGI,[20],5.9 µM
same,TGI,[21],13.3 µM
same,TGI,[22],22.6 µM
same,TGI,[23],7.23 µM
same,TGI,[24],16.8 µM
same,TGI,[25],9.53 µM
same,TGI,[26],5.01 µM
same,TGI,[27],11.2 µM
same,TGI,[28],4.49 µM
same,TGI,[29],4.41 µM
same,TGI,[30],10.6 µM
same,TGI,[31],13.3 µM
same,TGI,[32],15.5 µM
same,TGI,[33],4.25 µM
same,TGI,[34],7.23 µM
same,TGI,[35],8.81 µM
same,TGI,[36],4.13 µM
same,TGI,[37],7.22 µM
same,TGI,[38],4.4 µM
same,TGI,[39],20.2 µM
same,TGI,[40],4.54 µM
same,TGI,[41],9.05 µM
same,TGI,[42],9.77 µM
same,TGI,[43],13.8 µM
same,TGI,[44],8.28 µM
same,TGI,[45],6.03 µM
same,TGI,[46],7.8 µM
same,TGI,[47],7.25 µM
same,TGI,[48],11.2 µM
same,TGI,[49],8.93 µM
same,TGI,[50],13.6 µM
same,TGI,[51],11 µM
same,TGI,[52],6.31 µM
same,TGI,[53],6.63 µM
same,TGI,[54],4.17 µM
same,TGI,[55],8.96 µM
same,TGI,[56],4.41 µM
